Data published in PMC8398847, “Isavuconazole: Thermodynamic Evaluation of Processes Sublimation, Dissolution and Partition in Pharmaceutically Relevant Media” (Molecules, 2021).
Where two headings read alike, the source gives them in different places.

Assays:
[1] = Dissolution thermodynamics: ideal solubility, activity coefficients at infinite dilution, excess functions; assay type: physicochemical
Source text: The temperature dependence of solute solubility is described by the thermodynamic relationship:(26) lnx=lnxid−lnγ=ΔmH/RT[T−Tm/T]+∫TmT∫TmT(CpL−CpS)dT/RT^2−lnγ where x, xid, γ, Tm, ΔmH, ΔCp=CpL−CpS , R, and T represent the solubility mole fraction of the solute in solution, ideal mole fraction solubility of the solute, activity coefficient of the solute in solution, melting temperature of the solute, enthalpy of melting of the pure solute, differential molar heat capacity of the pure solute, gas constant and temperature, respectively. If the solubility or equilibrium mole fraction of a compound in solvents studied is low, it is assumed that the last term in Equation (26) denotes the infinite dilution activity coefficient lnγ^∞, which can be expressed as:(27) lnγ∞=ΔHsolE/RT−ΔSsolE/R where ΔHsolE and ΔSsolE represent the partial molar excess enthalpy, and partial molar excess entropy, respectively, and are assumed to be temperature independent. As the quantity ΔCp is assumed to be negligible and considered to be zero [52], substituting ΔCp = 0 into Equation (26) simplifies to (28) lnxid=−ΔHm/RTmln[Tm/T]

[2] = Partition experiment, 1-octanol/buffer pH 7.4, shake flask; assay type: physicochemical; conditions: for logP at 24 h: 1-octanol/buffer pH 7.4, pH 7.4, 1-octanol/buffer pH 7.4, read-out: logP*O/B (mole fraction scale); for PO/B / logPO/B / sB · 10^6 (equilibrium molar concentration, buffer phase) / sO · 10^3 (equilibrium molar concentration, organic phase) / xB · 10^7 (mole fraction, buffer phase) / xo · 10^4 (mole fraction, 1-octanol phase): 1-octanol/buffer pH 7.4
Procedure: The partition coefficients in the 1-octanol/buffer pH 7.4 system were determined by the shake flask method in the temperature range 293.15–313.15 K. The total volume of the two-phase system 80 cm^3 with the ratio of the organic phase to the volume of the aqueous phase 1:1 was used. Before the experiment, both solvents were mutually saturated by stirring in a large vessel for two days. […] The flasks with the test compound were stirred for 24 h in an air thermostat until complete equilibrium was ensured, as evidenced by the absence of turbidity in each of the phases. The final drug concentrations in both immiscible phases were measured spectrophotometrically.
The partition coefficients in 1-octanol/buffer system (PO/B) were calculated as the ratio of the equilibrium molar concentrations in the organic (sO) and buffer (sB )phases:PO/B =sO/sB(9)
The value P*O/B expressed in mole fraction were determined by follow equation:P*O/B = xO/xB(10)
The standard transfer enthalpy of drug was calculated based on the experimental temperature dependence of partition coefficients using van’t Hoff method:(11) d(lnPO/B*)/dT=ΔtrH^0/RT^2 whereas the standard Gibbs energy of transfer process from the buffer to 1-octanol was evaluated:∆trG° = −RTlnP*O/B(12)
The standard transfer entropy (∆trS°) is obtained by means of relationship:∆trS° =(∆trH° − ∆trG°)/T(13)
The transfer thermodynamic functions represent the change in the enthalpy and entropy terms when one solute mole is transferred from the aqueous phase to the organic phase at infinite dilution.

[3] = transfer from buffer pH 7.4 to 1-octanol

Compound: C[C@@H](c1nc(-c2ccc(C#N)cc2)cs1)[C@](O)(Cn1cncn1)c1cc(F)ccc1F [IVZ, Isavuconazole]
- lnγ^∞ ([1]; 1-octanol, 293.15 K): 2.40
- G^E ([1]; 1-octanol, 298.15 K): 5.85 ± 0.2 kJ/mol
- H^E ([1]; 1-octanol, 298.15 K): 3.62 ± 0.1 kJ/mol
- S^E ([1]; 1-octanol, 298.15 K): −7.5 ± 0.3 J·mol^−1·K^−1
- TS^E ([1]; 1-octanol, 298.15 K): -2.23 kJ/mol
- lnγ^∞ ([1]; 1-octanol, 298.15 K): 2.36
- ςH^E ([1]; 1-octanol, 298.15 K): 61.9%
- ςTS^E ([1]; 1-octanol, 298.15 K): 38.1%
- lnγ^∞ ([1]; 1-octanol, 303.15 K): 2.34
- lnγ^∞ ([1]; 1-octanol, 308.15 K): 2.32
- lnγ^∞ ([1]; 1-octanol, 313.15 K): 2.30
- lnγ^∞ ([1]; 1-propanol, 293.15 K): 2.16
- G^E ([1]; 1-propanol, 298.15 K): 5.25 ± 0.2 kJ/mol
- H^E ([1]; 1-propanol, 298.15 K): 4.97 ± 0.1 kJ/mol
- S^E ([1]; 1-propanol, 298.15 K): −0.9 ± 0.04 J·mol^−1·K^−1
- TS^E ([1]; 1-propanol, 298.15 K): -0.28 kJ/mol
- lnγ^∞ ([1]; 1-propanol, 298.15 K): 2.12
- ςH^E ([1]; 1-propanol, 298.15 K): 94.7%
- ςTS^E ([1]; 1-propanol, 298.15 K): 5.3%
- lnγ^∞ ([1]; 1-propanol, 303.15 K): 2.09
- lnγ^∞ ([1]; 1-propanol, 308.15 K): 2.06
- lnγ^∞ ([1]; 1-propanol, 313.15 K): 2.03
- lnγ^∞ ([1]; buffer pH 1.2, 293.15 K): 11.51
- G^E ([1]; buffer pH 1.2, 298.15 K): 28.6 ± 0.5 kJ/mol
- H^E ([1]; buffer pH 1.2, 298.15 K): -6.43 ± 0.1 kJ/mol
- S^E ([1]; buffer pH 1.2, 298.15 K): −117.5 ± 4.1 J·mol^−1·K^−1
- TS^E ([1]; buffer pH 1.2, 298.15 K): -35.03 kJ/mol
- lnγ^∞ ([1]; buffer pH 1.2, 298.15 K): 11.55
- ςH^E ([1]; buffer pH 1.2, 298.15 K): 15.3%
- ςTS^E ([1]; buffer pH 1.2, 298.15 K): 84.7%
- lnγ^∞ ([1]; buffer pH 1.2, 303.15 K): 11.59
- lnγ^∞ ([1]; buffer pH 1.2, 308.15 K): 11.64
- lnγ^∞ ([1]; buffer pH 1.2, 313.15 K): 11.67
- lnγ^∞ ([1]; buffer pH 2.0, 293.15 K): 12.82
- G^E ([1]; buffer pH 2.0, 298.15 K): 31.7 ± 0.6 kJ/mol
- H^E ([1]; buffer pH 2.0, 298.15 K): 5.20 ± 0.3 kJ/mol
- S^E ([1]; buffer pH 2.0, 298.15 K): −88.9 ± 5.1 J·mol^−1·K^−1
- TS^E ([1]; buffer pH 2.0, 298.15 K): -26.50 kJ/mol
- lnγ^∞ ([1]; buffer pH 2.0, 298.15 K): 12.80
- ςH^E ([1]; buffer pH 2.0, 298.15 K): 16.4%
- ςTS^E ([1]; buffer pH 2.0, 298.15 K): 83.6%
- lnγ^∞ ([1]; buffer pH 2.0, 303.15 K): 12.76
- lnγ^∞ ([1]; buffer pH 2.0, 308.15 K): 12.72
- lnγ^∞ ([1]; buffer pH 2.0, 313.15 K): 12.69
- lnγ^∞ ([1]; buffer pH 7.4, 293.15 K): 13.26
- G^E ([1]; buffer pH 7.4, 298.15 K): 32.7 ± 0.6 kJ/mol
- H^E ([1]; buffer pH 7.4, 298.15 K): 7.10 ± 0.1 kJ/mol
- S^E ([1]; buffer pH 7.4, 298.15 K): −85.9 ±2.9 J·mol^−1·K^−1
- TS^E ([1]; buffer pH 7.4, 298.15 K): -25.6 kJ/mol
- lnγ^∞ ([1]; buffer pH 7.4, 298.15 K): 13.21
- ςH^E ([1]; buffer pH 7.4, 298.15 K): 21.7%
- ςTS^E ([1]; buffer pH 7.4, 298.15 K): 78.3%
- lnγ^∞ ([1]; buffer pH 7.4, 303.15 K): 13.15
- lnγ^∞ ([1]; buffer pH 7.4, 308.15 K): 13.11
- lnγ^∞ ([1]; buffer pH 7.4, 313.15 K): 13.08
- entropy term ζTS^E ([1]; buffer solutions): > 78%
- lnγ^∞ ([1]; ethanol, 293.15 K): 2.00
- G^E ([1]; ethanol, 298.15 K): 4.83 ± 0.1 kJ/mol
- H^E ([1]; ethanol, 298.15 K): 7.21 ± 0.1 kJ/mol
- S^E ([1]; ethanol, 298.15 K): 8.0 ± 0.3 J·mol^−1·K^−1
- TS^E ([1]; ethanol, 298.15 K): 2.38 kJ/mol
- lnγ^∞ ([1]; ethanol, 298.15 K): 1.95
- ςH^E ([1]; ethanol, 298.15 K): 75.2%
- ςTS^E ([1]; ethanol, 298.15 K): 24.8%
- lnγ^∞ ([1]; ethanol, 303.15 K): 1.91
- lnγ^∞ ([1]; ethanol, 308.15 K): 1.86
- lnγ^∞ ([1]; ethanol, 313.15 K): 1.81
- lnγ^∞ ([1]; hexane, 293.15 K): 7.12
- G^E ([1]; hexane, 298.15 K): 17.4 ± 0.3 kJ/mol
- H^E ([1]; hexane, 298.15 K): 12.69 ± 0.1 kJ/mol
- S^E ([1]; hexane, 298.15 K): −15.8 ± 0.4 J·mol^−1·K^−1
- TS^E ([1]; hexane, 298.15 K): -4.71 kJ/mol
- lnγ^∞ ([1]; hexane, 298.15 K): 7.03
- ςH^E ([1]; hexane, 298.15 K): 72.9%
- ςTS^E ([1]; hexane, 298.15 K): 27.1%
- lnγ^∞ ([1]; hexane, 303.15 K): 6.95
- lnγ^∞ ([1]; hexane, 308.15 K): 6.86
- lnγ^∞ ([1]; hexane, 313.15 K): 6.79
- logP at 24 h ([2]; 293.15 K): 3.44
- logP at 24 h ([2]; 298.15 K): 3.5
- logP at 24 h ([2]; 303.15 K): 3.56
- logP at 24 h ([2]; 308.15 K): 3.62
- logP at 24 h ([2]; 313.15 K): 3.68
- PO/B ([2]; 293.15 K): 313.71
- logPO/B ([2]; 293.15 K): 2.50
- sB · 10^6 (equilibrium molar concentration, buffer phase) ([2]; 293.15 K): 6.85
- sO · 10^3 (equilibrium molar concentration, organic phase) ([2]; 293.15 K): 2.15
- xB · 10^7 (mole fraction, buffer phase) ([2]; 293.15 K): 1.22
- xo · 10^4 (mole fraction, 1-octanol phase) ([2]; 293.15 K): 3.39
- PO/B ([2]; 298.15 K): 359.18
- logPO/B ([2]; 298.15 K): 2.56
- sB · 10^6 (equilibrium molar concentration, buffer phase) ([2]; 298.15 K): 5.98
- sO · 10^3 (equilibrium molar concentration, organic phase) ([2]; 298.15 K): 2.15
- xB · 10^7 (mole fraction, buffer phase) ([2]; 298.15 K): 1.07
- xo · 10^4 (mole fraction, 1-octanol phase) ([2]; 298.15 K): 3.40
- PO/B ([2]; 303.15 K): 413.63
- logPO/B ([2]; 303.15 K): 2.62
- sB · 10^6 (equilibrium molar concentration, buffer phase) ([2]; 303.15 K): 5.20
- sO · 10^3 (equilibrium molar concentration, organic phase) ([2]; 303.15 K): 2.15
- xB · 10^7 (mole fraction, buffer phase) ([2]; 303.15 K): 0.93
- xo · 10^4 (mole fraction, 1-octanol phase) ([2]; 303.15 K): 3.42
- PO/B ([2]; 308.15 K): 474.77
- logPO/B ([2]; 308.15 K): 2.68
- sB · 10^6 (equilibrium molar concentration, buffer phase) ([2]; 308.15 K): 4.53
- sO · 10^3 (equilibrium molar concentration, organic phase) ([2]; 308.15 K): 2.15
- xB · 10^7 (mole fraction, buffer phase) ([2]; 308.15 K): 0.81
- xo · 10^4 (mole fraction, 1-octanol phase) ([2]; 308.15 K): 3.43
- PO/B ([2]; 313.15 K): 535.22
- logPO/B ([2]; 313.15 K): 2.73
- sB · 10^6 (equilibrium molar concentration, buffer phase) ([2]; 313.15 K): 4.02
- sO · 10^3 (equilibrium molar concentration, organic phase) ([2]; 313.15 K): 2.15
- xB · 10^7 (mole fraction, buffer phase) ([2]; 313.15 K): 0.72
- xo · 10^4 (mole fraction, 1-octanol phase) ([2]; 313.15 K): 3.45
- TΔtrS° [2, 3]: TΔtrS° = 40.9 ± 1.5/kJ·mol^−1
- ΔtrG° [2, 3]: ΔtrG° = −19.99 ± 0.4/kJ·mol^−1
- ΔtrH° [2, 3]: ΔtrH° = 20.95 ± 0.2/kJ·mol^−1
- ΔtrS° [2, 3]: ΔtrS° = 137.3 ± 5.2/J·mol^−1K^−1
